For 18 compounds, IC50 results are on record in patent US9108983B2, “Pyrrole compounds, a process for their preparation and pharmaceutical compositions containing them” (LES LABORATOIRES SERVIER, priority 2013, dated 2015).

Counter-ions that a name gives are not always drawn. Like-named read-outs stand apart in the source and are kept apart here.

In experiment [1] the target is Bcl-2 protein (histag-Bcl-2, UniProtKB P10415) (Homo sapiens (Human), UniProt P10415). Kind of experiment: Inhibition of Bcl-2 by the fluorescence polarisation technique. In kind it is binding. Particulars: incubation for 2 hours. Summed up:
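In pH 7.4 buffer (Hepes 10 mM, NaCl 150 mM, Tween20 0.05%), test compounds at increasing concentrations competed with a fluorescein peptide (1.00×10^−8 M final) for histag-Bcl-2 (2.50×10^−8 M final). Readout was fluorescence polarisation after a 2 h incubation.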
Background: In fluorescence polarisation assays a small probe gives low polarisation when free and higher when bound to something large.

The test system of experiment [2] is RS4;11 leukaemia tumour line. Kind of experiment: In vitro cytotoxicity (Microculture Tetrazolium Assay). Particulars: RS4;11 cells, exposed for 48 hours, cell viability, read-out: IC50 (nM) MTT RS4;11. In kind it is cell-based. The method, then:
The cytotoxicity studies were carried out on the RS4;11 leukaemia tumour line.
The cells are distributed onto microplates and exposed to the test compounds for 48 hours.
The cell viability is then quantified by a colorimetric assay, the Microculture Tetrazolium Assay (Cancer Res., 1987, 47, 939-942).

Bcl-2 protein, sequence (P10415 whole entry): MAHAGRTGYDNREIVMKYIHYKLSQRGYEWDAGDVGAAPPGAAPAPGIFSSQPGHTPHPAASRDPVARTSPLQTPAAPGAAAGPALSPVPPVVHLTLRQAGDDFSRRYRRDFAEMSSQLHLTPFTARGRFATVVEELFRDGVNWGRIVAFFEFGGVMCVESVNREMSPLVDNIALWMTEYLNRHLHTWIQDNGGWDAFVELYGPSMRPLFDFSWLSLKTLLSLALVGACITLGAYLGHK

As a reminder, the IC50 is the concentration that inhibits the measured activity by half. Turning to `Cc1c(C(=O)N(c2ccc(O)cc2)c2cnc3c(ccn3C)c2)cc(-c2cc3c(cc2C(=O)N2Cc4ccccc4C[C@H]2CN2CCOCC2)OCO3)n1C` [Example 44, N-(4-Hydroxyphenyl)-1,2-dimethyl-N-(1-methyl-1H-pyrrolo[2,3-b]-pyridin-5-yl)-5-(6-{[(3S)-3-(morpholin-4-ylmethyl)-3,4-dihydroisoquinolin-2(1H)-yl]carbonyl}-1,3-benzodioxol-5-yl)-1H-pyrrole-3-carboxamide hydrochloride], the IC50 is 3 nM in experiment [1] (read-out: IC50 (nM) Bcl-2 FP) and 5.41 nM in experiment [2] (Homo sapiens, RS4-11, 48 h).
Take `Cc1c(C(=O)N(C)c2ccc(O)cc2)cc(-c2cc(CCNC(=O)Oc3ccccc3)ccc2C(=O)N2Cc3ccccc3C[C@H]2C)n1C` [Example 45, Phenyl[2-(3-{4-[(4-hydroxyphenyl)(methyl)carbamoyl]-1,5-dimethyl-1H-pyrrol-2-yl}-4-{[(3R)-3-methyl-3,4-dihydroisoquinolin-2(1H)-yl]carbonyl}-phenyl)ethyl]carbamate]: the figures for the IC50 in experiment [1] (IC50 (nM) Bcl-2 FP) and in experiment [2] (Homo sapiens) were 38.9 nM and 403 nM, respectively.
On to `Cc1c(C(=O)N(C)c2ccc(O)cc2)cc(-c2cc(CCNC(=O)COc3ccccc3)ccc2C(=O)N2Cc3ccccc3C[C@H]2C)n1C` [Example 46, N-(4-Hydroxyphenyl)-N,1,2-trimethyl-5-(2-{[(3R)-3-methyl-3,4-dihydroisoquinolin-2(1H)-yl]carbonyl}-5-{2-[(phenoxyacetyl)amino]ethyl}phenyl)-1H-pyrrole-3-carboxamide], for which the half-maximal inhibitory concentration (IC50) in experiment [1] (read-out: IC50 (nM) Bcl-2 FP) is 76.6 nM; in experiment [2] (Homo sapiens, RS4-11, 48 h), greater than 600 nM.
On the same counts, the results for `COc1ncc(N(C(=O)c2cc(-c3cc4c(cc3C(=O)N3Cc5ccccc5C[C@H]3C)OCO4)n(C)c2C)c2ccc(O)cc2)cn1` [Example 48, N-(4-Hydroxyphenyl)-N-(2-methoxypyrimidin-5-yl)-1,2-dimethyl-5-(6-{[(3R)-3-methyl-3,4-dihydroisoquinolin-2(1H)-yl]carbonyl}-1,3-benzodioxol-5-yl)-1H-pyrrole-3-carboxamide] are 4.4 nM and 14.9 nM.
As for `Cc1c(C(=O)N(c2ccc(O)cc2)c2cnc3c(c2)CCN3C)cc(-c2cc3c(cc2C(=O)N2Cc4ccccc4C[C@H]2CN2CCOCC2)OCO3)n1C` [Example 49, N-(4-Hydroxyphenyl)-1,2-dimethyl-N-(1-methyl-2,3-dihydro-1H-pyrrolo[2,3-b]pyridin-5-yl)-5-(6-{[(3S)-3-(morpholin-4-ylmethyl)-3,4-dihydroisoquinolin-2(1H)-yl]carbonyl}-1,3-benzodioxol-5-yl)-1H-pyrrole-3-carboxamide dihyrochloride], the IC50 in experiment [1] (read-out: IC50 (nM) Bcl-2 FP) was 4 nM; in experiment [2] it was 14.1 nM.
For the compound `COc1ncc(N(C(=O)c2cc(-c3cc4c(cc3C(=O)N3Cc5ccccc5C[C@H]3CN3CCOCC3)OCO4)n(C)c2C)c2ccc(O)cc2)cn1` [Example 50, N-(4-Hydroxyphenyl)-N-(2-methoxypyrimidin-5-yl)-1,2-dimethyl-5-(6-{[(3S)-3-(morpholin-4-ylmethyl)-3,4-dihydroisoquinolin-2(1H)-yl]carbonyl}-1,3-benzodioxol-5-yl)-1H-pyrrole-3-carboxamide hydrochloride], the IC50 in experiment [1] (read-out: IC50 (nM) Bcl-2 FP) came to 5.9 nM; in experiment [2] (Homo sapiens, RS4-11, 48 h), 33.1 nM.
As for `Cc1c(C(=O)N(C)c2ccc(O)cc2)cc(-c2cc(CNC(=O)NCc3ccccc3)ccc2C(=O)N2Cc3ccccc3C[C@H]2C)n1C` [Example 51, 5-(5-{[(Benzylcarbamoyl)amino]methyl}-2-{[(3R)-3-methyl-3,4-dihydroisoquinolin-2(1H)-yl]carbonyl}phenyl)-N-(4-hydroxyphenyl)-N,1,2-trimethyl-1H-pyrrole-3-carboxamide], the IC50 is 26.7 nM in experiment [1] (read-out: IC50 (nM) Bcl-2 FP) and 354 nM in experiment [2] (Homo sapiens, RS4-11, 48 h).
The corresponding values for `CCNC(=O)NCc1ccc(C(=O)N2Cc3ccccc3C[C@H]2C)c(-c2cc(C(=O)N(C)c3ccc(O)cc3)c(C)n2C)c1` [Example 52, 5-(5-{[(Ethylcarbamoyl)amino]methyl}-2-{[(3R)-3-methyl-3,4-dihydroisoquinolin-2(1H)-yl]carbonyl}phenyl)-N-(4-hydroxyphenyl)-N,1,2-trimethyl-1H-pyrrole-3-carboxamide] are 28.9 nM and 433 nM.
The corresponding values for `Cc1c(C(=O)N(C)c2ccc(O)cc2)cc(-c2cc(CNC(=O)COc3ccccc3)ccc2C(=O)N2Cc3ccccc3C[C@H]2C)n1C` [Example 53, N-(4-Hydroxyphenyl)-N,1,2-trimethyl-5-(2-{[(3R)-3-methyl-3,4-dihydroisoquinolin-2(1H)-yl]carbonyl}-5-{[(phenoxyacetyl)amino]methyl}phenyl)-1H-pyrrole-3-carboxamide] are 43.5 nM and 293 nM.
As to `Cc1c(C(=O)N(c2ccc(O)cc2)c2cnc3c(ccn3C)c2)cc(-c2cc(CNC(=O)COc3ccccc3)ccc2C(=O)N2Cc3ccccc3C[C@H]2C)n1C` [Example 54, N-(4-Hydroxyphenyl)-1,2-dimethyl-5-(2-{[(3R)-3-methyl-3,4-dihydroisoquinolin-2(1H)-yl]carbonyl}-5-{[(phenoxyacetyl)amino]methyl}phenyl)-N-(1-methyl-1H-pyrrolo[2,3-b]pyridin-5-yl)-1H-pyrrole-3-carboxamide], the IC50 was found to be 18 nM in experiment [1] (read-out: IC50 (nM) Bcl-2 FP) and 30.5 nM in experiment [2] (Homo sapiens, RS4-11, 48 h).
Take `Cc1c(C(=O)N(C)c2ccc(O)cc2)cc(-c2cc(CCNS(=O)(=O)CCc3ccc(F)cc3)ccc2C(=O)N2Cc3ccccc3C[C@H]2C)n1C` [Example 55, 5-(5-[2-({[2-(4-Fluorophenyl)ethyl]sulphonyl}amino)ethyl]-2-{[(3R)-3-methyl-3,4-dihydroisoquinolin-2(1H)-yl]carbonyl}phenyl)-N-(4-hydroxyphenyl)-N,1,2-trimethyl-1H-pyrrole-3-carboxamide]: the IC50 was 210 nM in experiment [1] (read-out: IC50 (nM) Bcl-2 FP) and greater than 600 nM in experiment [2] (Homo sapiens, RS4-11, 48 h).
As for `Cc1c(C(=O)N(C)c2ccc(O)cc2)cc(-c2cc(CCNC(=O)NCc3ccccc3)ccc2C(=O)N2Cc3ccccc3C[C@H]2C)n1C` [Example 56, 5-(5-{2-[(Benzylcarbamoyl)amino]ethyl}-2-{[(3R)-3-methyl-3,4-dihydroisoquinolin-2(1H)-yl]carbonyl}phenyl)-N-(4-hydroxyphenyl)-N,1,2-trimethyl-1H-pyrrole-3-carboxamide], the IC50 in experiment [1] (read-out: IC50 (nM) Bcl-2 FP) is 75 nM; in experiment [2] (Homo sapiens, RS4-11, 48 h), greater than 600 nM.
The corresponding values for `Cc1c(C(=O)N(C)c2ccc(O)cc2)cc(-c2cc(CCNC(=O)Cc3ccccc3)ccc2C(=O)N2Cc3ccccc3C[C@H]2C)n1C` [Example 57, N-(4-Hydroxyphenyl)-N,1,2-trimethyl-5-(2-{[(3R)-3-methyl-3,4-dihydroisoquinolin-2(1H)-yl]carbonyl}-5-{2-[(phenylacetyl)amino]ethyl}phenyl)-1H-pyrrole-3-carboxamide] are 80 nM and greater than 600 nM.
On the same counts, the results for `Cc1c(C(=O)N(C)c2ccc(O)cc2)cc(-c2cc(CCNC(=O)Nc3ccccc3)ccc2C(=O)N2Cc3ccccc3C[C@H]2C)n1C` [Example 58, N-(4-Hydroxyphenyl)-N,1,2-trimethyl-5-(2-{[(3R)-3-methyl-3,4-dihydroisoquinolin-2(1H)-yl]carbonyl}-5-{2-[(phenylcarbamoyl)amino]ethyl}phenyl)-1H-pyrrole-3-carboxamide] are 133 nM and greater than 600 nM.
Turning to `Cc1c(C(=O)N(C)c2ccc(O)cc2)cc(-c2ccc(CNS(=O)(=O)CCc3ccc(F)cc3)cc2C(=O)N2Cc3ccccc3C[C@H]2C)n1C` [Example 59, 5-(4-[({[2-(4-Fluorophenyl)ethyl]sulphonyl}amino)methyl]-2-{[(3R)-3-methyl-3,4-dihydroisoquinolin-2(1H)-yl]carbonyl}phenyl)-N-(4-hydroxyphenyl)-N,1,2-trimethyl-1H-pyrrole-3-carboxamide], the IC50 in experiment [1] (read-out: IC50 (nM) Bcl-2 FP) is 134 nM; in experiment [2] (Homo sapiens, RS4-11, 48 h), greater than 600 nM.
The corresponding values for `Cc1c(C(=O)N(c2ccncc2)c2ccc(O)cc2)cc(-c2cc3c(cc2C(=O)N2Cc4ccccc4C[C@H]2C)OCO3)n1C` [Example 61, N-(4-Hydroxyphenyl)-1,2-dimethyl-5-(6-{[(3R)-3-methyl-3,4-dihydroisoquinolin-2(1H)-yl]carbonyl}-1,3-benzodioxol-5-yl)-N-(pyridin-4-yl)-1H-pyrrole-3-carboxamide hydrochloride] are 4.5 nM and 37.8 nM.
Consider `COc1cc(C(=O)N2Cc3ccccc3C[C@H]2C)c(-c2cc(C(=O)N(c3ccc(O)cc3)c3cnn(C)c3)c(C)n2C)cc1F` [Example 62, 5-(5-Fluoro-4-methoxy-2-{[(3R)-3-methyl-3,4-dihydroisoquinolin-2(1H)-yl]carbonyl}phenyl)-N-(4-hydroxyphenyl)-1,2-dimethyl-N-(1-methyl-1H-pyrazol-4-yl)-1H-pyrrole-3-carboxamide], for which the IC50 in experiment [1] (read-out: IC50 (nM) Bcl-2 FP) came to 14.3 nM; in experiment [2] (Homo sapiens, RS4-11, 48 h) it was 127 nM.
With `Cc1c(C(=O)N(c2ccc(O)cc2)c2cnc3c(ccn3C)c2)cc(-c2cc(Cl)ccc2C(=O)N2Cc3ccccc3C[C@H]2C)n1C` [Example 63, 5-(5-Chloro-2-{[(3R)-3-methyl-3,4-dihydroisoquinolin-2(1H)-yl]-carbonyl}phenyl)-N-(4-hydroxyphenyl)-1,2-dimethyl-N-(1-methyl-1H-pyrrolo[2,3-b]-pyridin-5-yl)-1H-pyrrole-3-carboxamide], the IC50 in experiment [1] (read-out: IC50 (nM) Bcl-2 FP) is 5.1 nM; in experiment [2] (Homo sapiens, RS4-11, 48 h), 11.2 nM.
